Measured values published in US9604975B2, “Indolyl-pyridone derivatives having checkpoint kinase 1 inhibitory activity” (Vernalis (R&D) Ltd., priority 2009, dated 2017).

Each compound was assayed against T1, CHK1 (Homo sapiens, UniProt O14757) (assay: CHK1 Enzyme Assay (phosphorylation of Chktide peptide, 33P-ATP filter assay)). Settings: 12.5 nM His-CHK1, 0.01 mM ATP, 40 minutes at 30° C.; read-out: CHK1 Enzyme Activity (IC50 range).
T1 construct: His; purchased Invitrogen
T1 sequence (O14757 1-476): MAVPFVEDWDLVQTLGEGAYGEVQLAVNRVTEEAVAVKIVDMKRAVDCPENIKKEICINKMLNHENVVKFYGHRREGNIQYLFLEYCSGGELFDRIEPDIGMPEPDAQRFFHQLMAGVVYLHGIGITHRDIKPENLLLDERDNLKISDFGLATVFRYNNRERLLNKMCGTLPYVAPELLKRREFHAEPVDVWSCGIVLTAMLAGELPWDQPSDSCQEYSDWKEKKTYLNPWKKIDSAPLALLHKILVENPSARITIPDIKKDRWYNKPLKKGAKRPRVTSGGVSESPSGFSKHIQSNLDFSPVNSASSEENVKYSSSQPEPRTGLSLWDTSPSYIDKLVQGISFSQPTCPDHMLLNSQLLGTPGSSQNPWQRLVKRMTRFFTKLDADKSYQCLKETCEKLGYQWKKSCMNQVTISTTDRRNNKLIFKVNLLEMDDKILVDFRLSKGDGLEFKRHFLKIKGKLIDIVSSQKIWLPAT
Format: biochemical
In short: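 Filter-binding radiometric readout of 33P incorporation into Chktide (14.8 μM), after a 40 min, 30 °C reaction at pH 7.5 (50 mM Hepes-NaOH, 0.1 mg/mL BSA). The reaction contained 12.5 nM His-tagged CHK1, inhibitor and 0.01 mM cold ATP plus labelled ATP.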

IC50, < 0.1 µM:
CN(C)CCCOc1ccc2[nH]c(-c3cc(NC(=O)c4cnn(Cc5ccccc5)c4)c[nH]c3=O)cc2c1 [Example 145, 1-Benzyl-1H-pyrazole-4-carboxylic acid {5-[5-(3-dimethylamino-propoxy)-1H-indol-2-yl]-6oxo-1,6-dihydro-pyridin-3-yl}-amide]
CC1CN(CCOc2ccc3[nH]c(-c4cc(NC(=O)c5cnn(Cc6ccccc6)c5)c[nH]c4=O)cc3c2)CC(C)O1 (centres unmarked) [Example 147, 1-Benzyl-1H-pyrazole-4-carboxylic acid (5-{5-[2-(2,6-dimethyl-morpholin-4-yl)-ethoxy]-1H-indol-2-yl}-6oxo-1,6-dihydro-pyridin-3-yl)-amide]
O=C(Nc1cnn(Cc2ccc(F)c(F)c2)c1)c1c[nH]c(=O)c(-c2cc3cc(CN4CCC(F)CC4)ccc3[nH]2)c1 [Example 97, 5-[5-(4-Fluoro-piperidin-1-ylmethyl)-1H-indol-2-yl]-6-oxo-1,6-dihydro-pyridine-3-carboxylic acid [1-(3,4-difluoro-benzyl)-1H-pyrazol-4-yl]-amide]
O=C(Nc1c[nH]c(=O)c(-c2cc3ccccc3[nH]2)c1)c1cnn(Cc2ccc(Cl)cc2)c1 [Example 28, 1-(4-Chloro-benzyl)-1H-pyrazole-4-carboxylic acid [5-(1H-indol-2-yl)-6-oxo-1,6-dihydro-pyridin-3-yl]-amide]
Cc1ccc(Cn2cc(C(=O)Nc3c[nH]c(=O)c(-c4cc5cc(OCCN6CC(C)OC(C)C6)ccc5[nH]4)c3)cn2)cc1 (centres unmarked) [Example 131, 1-(4-Methyl-benzyl)-1H-pyrazole-4-carboxylic acid (5-{5-[2-(2,6-dimethyl-morpholin-4-yl)-ethoxy]-1H-indol-2-yl}-6-oxo-1,6-dihydro-pyridin-3-yl)-amide]
O=C(Nc1cnn(Cc2ccc(F)c(F)c2)c1)c1c[nH]c(=O)c(-c2cc3ccccc3[nH]2)c1 [Example 11, 5-(1H-Indol-2-yl)-6-oxo-1,6-dihydro-pyridine-3-carboxylic acid [1-(3,4-difluoro-benzyl)-1H-pyrazol-4-yl]-amide]
CN(C)Cc1cccc2[nH]c(-c3cc(NC(=O)c4cnn(Cc5ccccc5)c4)c[nH]c3=O)cc12 [Example 106, 1-Benzyl-1H-pyrazole-4-carboxylic acid [5-(4-dimethylaminomethyl-1H-indol-2-yl)-6-oxo-1,6-dihydro-pyridin-3-yl]-amide]
C[C@H](c1ccccc1)n1cc(C(=O)Nc2c[nH]c(=O)c(-c3cc4ccccc4[nH]3)c2)cn1 [Example 161, 1-((R)-1-Phenyl-ethyl)-1H-pyrazole-4-carboxylic acid [5-(1H-indol-2-yl)-6-oxo-1,6-dihydro-pyridin-3-yl]-amide]
C[C@@H]1CN(Cc2ccc3[nH]c(-c4cc(NC(=O)c5cnn(Cc6ccc(F)cc6)c5)c[nH]c4=O)cc3c2)C[C@H](C)O1 [Example 76, 1-(4-Fluoro-benzyl)-1H-pyrazole-4-carboxylic acid {5-[5-(cis-2,6-dimethyl-morpholin-4-ylmethyl)-1H-indol-2-yl]-6-oxo-1,6-dihydro-pyridin-3-yl}-amide]
Cc1ccc(Cn2cc(C(=O)Nc3c[nH]c(=O)c(-c4cc5cc(N6CCN(C)CC6)ccc5[nH]4)c3)cn2)cc1 [Example 112, 1-(4-Methyl-benzyl)-1H-pyrazole-4-carboxylic acid {5-[5-(4-methyl-piperazin-1-yl)-1H-indol-2-yl]-6-oxo-1,6-dihydro-pyridin-3-yl}-amide]
NCCOc1cccc2[nH]c(-c3cc(NC(=O)c4cnn(Cc5ccccc5)c4)c[nH]c3=O)cc12 [Example 158, 1-Benzyl-1H-pyrazole-4-carboxylic acid {5-[4-(2-amino-ethoxy)-1H-indol-2-yl]-6-oxo-1,6-dihydro-pyridin-3-yl}-amide]
CC(C)c1ccc(Cn2cc(C(=O)Nc3c[nH]c(=O)c(-c4cc5cc(OCCCN(C)C)ccc5[nH]4)c3)cn2)cc1 [Example 157, 1-(4-Isopropylbenzyl)-1H-pyrazole-4-carboxylic acid {5-[5-(3-dimethylaminopropoxy)-1H-indol-2-yl)-6-oxo-1,6-dihydropyridin-3-yl}-amide]
Cc1ccc(Cn2cc(C(=O)Nc3c[nH]c(=O)c(-c4cc5cc(OCCN6CCCC(F)C6)ccc5[nH]4)c3)cn2)cc1 (centres unmarked) [Example 116, 1-(4-Methyl-benzyl)-1H-pyrazole-4-carboxylic acid (5-{5-[2-(3-fluoro-piperidin-1-yl)-ethoxy]-1H-indol-2-yl}-6-oxo-1,6-dihydro-pyridin-3-yl)-amide]
CC(C)(COc1ccc2[nH]c(-c3cc(NC(=O)c4cnn(Cc5ccccc5)c4)c[nH]c3=O)cc2c1)CN1CC[C@H](F)C1 [Example 183, 1-Benzyl-1H-pyrazole-4-carboxylic acid (5-{5-[3-((S)-3-fluoro-pyrrolidin-1-yl)-2,2-dimethyl-propoxyl]-1H-indol-2-yl}-6-oxo-1,6-dihydro-pyridin-3-yl)-amide]
CC(C)(C)c1ccc(Cn2cc(C(=O)Nc3c[nH]c(=O)c(-c4cc5cc(OCCN6CCCCC6)ccc5[nH]4)c3)cn2)cc1 [Example 151, 1-(4-tert-Butylbenzyl)-1H-pyrazole-4-carboxylic acid {5-[5-(2-piperidin-1-ylethoxy)-1H-indol-2-yl)-6-oxo-1,6-dihydropyridin-3-yl}-amide]
CC(C)c1ccc(Cn2cc(C(=O)Nc3c[nH]c(=O)c(-c4cc5cc(OCCCN6CCCCC6)ccc5[nH]4)c3)cn2)cc1 [Example 150, 1-(4-Isopropylbenzyl)-1H-pyrazole-4-carboxylic acid-{6-oxo-5-[5-(3-piperidin-1-ylpropoxy)-1H-indol-2-yl]-1,6-dihydropyridin-3-yl}-amide]
O=C(Nc1c[nH]c(=O)c(-c2cc3cc(CN4CC[C@H](F)C4)ccc3[nH]2)c1)c1cnn(Cc2ccccc2)c1 [Example 175, 1-Benzyl-1H-pyrazole-4-carboxylic acid {5-[5-((S)-3-fluoro-pyrrolidin-1-ylmethyl)-1H-indol-2-yl]-6-oxo-1,6-dihydro-pyridin-3-yl}-amide]
CC(C)c1ccc(Cn2cc(C(=O)Nc3c[nH]c(=O)c(-c4cc5cc(OCCN6CCCCC6)ccc5[nH]4)c3)cn2)cc1 [Example 152, 1-(4-Isopropylbenzyl)-1H-pyrazole-4-carboxylic acid {5-[5-(2-piperidin-1-ylethoxy)-1H-indol-2-yl)-6-oxo-1,6-dihydropyridin-3-yl}-amide]
CC(C)(COc1ccc2[nH]c(-c3cc(NC(=O)c4cnn(Cc5ccccc5)c4)c[nH]c3=O)cc2c1)CN1CCC(F)(F)C1 [Example 181, 1-Benzyl-1H-pyrazole-4-carboxylic acid (5-{5-[3-(3,3-difluoro-pyrrolidin-1-yl)-2,2-dimethyl-propoxy]-1H-indol-2-yl}-6-oxo-1,6-dihydro-pyridin-3-yl)-amide]
O=C(Nc1c[nH]c(=O)c(-c2cc3c(CN4CCCCC4)cccc3[nH]2)c1)c1cnn(Cc2ccccc2)c1 [Example 108, 1-Benzyl-1H-pyrazole-4-carboxylic acid [6-oxo-5-(4-piperidin-1-ylmethyl-1H-indol-2-yl)-1,6-dihydro-pyridin-3-yl]-amide]
